PubChem BioAssay AID1259246 (Broad Institute, 2017)
Several values for one entry are separate records, joined by “and”; a condition that tells them apart may be missing. Identical values can stand only once. Inconclusive results are not listed. Activity calls are given as the source filed them.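 The calls were made as follows: active = valid dose-response fit whose half-maximal growth-inhibiting concentration is at or below a set limit above the top tested dose; inconclusive = flat fit with effect between 30 and 70%, or poor fit; inactive = half-maximal concentration above a set limit.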

Key:
[1] = antibacterial activity against Clostridioides difficile – 10-point retest, dose response (AID 1259246); settings: Clostridioides difficile clinical isolate growth, OD600, 24 h
[2] = tested on: Clostridioides difficile clinical isolate growth, OD600, 24 h; experiment: as above

SMILES	IC50 [2]	other results
O=C(NCC[C@@H]1CC[C@@H](NC(=O)C2CC2)[C@@H](CO)O1)Nc1ccc(C(F)(F)F)cc1	6.63 µM	activity change, negative = inhibition ([1]; at 120 µM (top of the series)): 2.33% (inactive)
O=C(NCC[C@@H]1CC[C@H](NC(=O)C2CC2)[C@H](CO)O1)Nc1ccc(C(F)(F)F)cc1	15 µM	activity change, negative = inhibition ([1]; at 120 µM (top of the series)): -0.062% (inactive)
CO[C@@H]1CN(C)C(=O)c2ccc(NC(=O)Nc3cc(Cl)cc(Cl)c3)cc2OC[C@H](C)NC[C@@H]1C	74.6 µM	activity change, negative = inhibition ([1]; at 120 µM (top of the series)): 4.74% (inactive)
C[C@@H]1CN([C@@H](C)CO)C(=O)Cc2cc(NC(=O)CCCN(C)C)ccc2O[C@@H]1CN(C)Cc1ccc(-c2ccccc2)cc1	7.29 µM	activity change, negative = inhibition ([1]; at 110 µM (top of the series)): 88.3% (inactive)
CC(C)Cc1ccc(CN2CC[C@@H](NS(=O)(=O)c3ccccc3)C2)cc1	56 µM	activity change, negative = inhibition ([1]; at 60 µM (top of the series)): 4.46% (inactive)
Cc1ccc(F)cc1S(=O)(=O)N[C@@H]1CCN(Cc2ccc(OC(C)C)cc2)C1	29.6 µM	activity change, negative = inhibition ([1]; at 120 µM (top of the series)): 21.4% (inactive)
CO[C@H]1CN(C)C(=O)c2ccc(NC(=O)Nc3cc(Cl)cc(Cl)c3)cc2OC[C@@H](C)NC[C@H]1C	11.6 µM	activity change, negative = inhibition ([1]; at 120 µM (top of the series)): 23.1% (inactive)
O=C(NCC[C@H]1CC[C@H](NC(=O)C2CC2)[C@H](CO)O1)Nc1ccc(C(F)(F)F)cc1	28.4 µM	activity change, negative = inhibition ([1]; at 120 µM (top of the series)): -1.84% (inactive)
CO[C@H]1CN(C)C(=O)c2ccc(NC(=O)Nc3cc(Cl)cc(Cl)c3)cc2OC[C@@H](C)NC[C@@H]1C	34.1 µM	activity change, negative = inhibition ([1]; at 30 µM (top of the series)): 32.6% (inactive)
CO[C@H](CN(C)C(=O)C1CCOCC1)[C@H](C)CN(C(=O)Nc1ccc(C(F)(F)F)cc1)[C@H](C)CO	26.2 µM	–
CO[C@H]1CN(C)C(=O)c2cc(NC(=O)Nc3cc(Cl)cc(Cl)c3)ccc2OC[C@@H](C)NC[C@@H]1C	33.9 µM and 6.17 µM	–
O=C(NCC[C@@H]1CC[C@H](NC(=O)C2CC2)[C@@H](CO)O1)Nc1ccc(C(F)(F)F)cc1	8.56 µM	activity change, negative = inhibition ([1]; at 120 µM (top of the series)): 2.87% (inactive)
CO[C@@H](CN(C)C(=O)C1CCOCC1)[C@@H](C)CN(C(=O)Nc1ccc(C(F)(F)F)cc1)[C@@H](C)CO	38.8 µM	–
CO[C@@H]1CN(C)C(=O)c2cc(NC(=O)Nc3cc(Cl)cc(Cl)c3)ccc2OC[C@H](C)NC[C@@H]1C	37.8 µM and 35.6 µM	–
C[C@@H]1CN([C@H](C)CO)C(=O)c2cc(NC(=O)Nc3cccc4ccccc34)ccc2O[C@@H](C)CCCCO[C@H]1CN(C)Cc1ccccc1	68.4 µM	–
C[C@H](CO)N1C[C@H](C)[C@@H](CN(C)Cc2ccc(-c3ccccc3)cc2)Oc2ccc(NC(=O)CCCN(C)C)cc2CC1=O	68.7 µM	–
C[C@H](CO)N1C[C@H](C)[C@H](CN(C)C(=O)NC2CCCCC2)Oc2ncc(C#Cc3ccc(F)cc3)cc2C1=O	37.7 µM	–

SMILES	IC50 [2]	other results
COc1cccc(C#Cc2ccc([C@H]3[C@@H](CO)N(C(=O)C4CCCCC4)[C@H]3C#N)cc2)c1	77.8 µM	activity change, negative = inhibition ([1]; at 75 µM (top of the series)): 12.9% (inactive)
C[C@@H]1CN([C@@H](C)CO)C(=O)c2cc(NC(=O)Nc3ccc(C(F)(F)F)cc3)ccc2O[C@@H](C)CCCCO[C@H]1CN(C)CC1CCCCC1	10.9 µM and 2.15 µM	–
CO[C@H]1CN(C)C(=O)c2ccc(NC(=O)Nc3ccc(Cl)c(Cl)c3)cc2OC[C@H](C)NC[C@H]1C	14.9 µM and 8.28 µM	–
CO[C@H](CN(C)C(=O)C1CCOCC1)[C@@H](C)CN(C(=O)Nc1ccc(C(F)(F)F)cc1)[C@@H](C)CO	2.03 µM	–
C[C@H]1CN([C@@H](C)CO)S(=O)(=O)c2ccc(C#Cc3ccc(F)cc3)cc2O[C@@H]1CN(C)C	69.9 µM	–
CO[C@@H]1CN(C)C(=O)c2cc(NC(=O)Nc3ccc(Cl)c(Cl)c3)ccc2OC[C@H](C)NC[C@@H]1C	17.8 µM and 12.5 µM	–
CO[C@@H]1CN(C)C(=O)c2ccc(NC(=O)Nc3cc(Cl)cc(Cl)c3)cc2OC[C@H](C)NC[C@H]1C	153 µM and 36.2 µM	–
C[C@@H]1CN([C@H](C)CO)S(=O)(=O)c2ccc(C#CCC3CCCC3)cc2O[C@H]1CN(C)C	69.3 µM	–
O=C(NCC[C@H]1CC[C@@H](NC(=O)C2CC2)[C@@H](CO)O1)Nc1ccc(C(F)(F)F)cc1	8.52 µM	activity change, negative = inhibition ([1]; at 120 µM (top of the series)): 4.63% (inactive)
CO[C@@H]1CN(C)C(=O)c2cc(NC(=O)Nc3ccc(Cl)c(Cl)c3)ccc2OC[C@@H](C)NC[C@@H]1C	13.7 µM and 26.6 µM	–
C[C@H](CO)N1C[C@H](C)[C@@H](CN(C)Cc2ccc(Oc3ccccc3)cc2)Oc2ccc(NC(=O)CCCN(C)C)cc2CC1=O	64.1 µM	–
CO[C@H]1CN(C)C(=O)c2cc(NC(=O)Nc3ccc(Cl)c(Cl)c3)ccc2OC[C@@H](C)NC[C@H]1C	14.9 µM and 13.1 µM	–
C[C@@H]1CN([C@H](C)CO)S(=O)(=O)c2ccc(/C=C/c3ccccc3)cc2O[C@H]1CN(C)Cc1ccc(C(=O)O)cc1	6.11 µM	–
O=C(NCC[C@H]1CC[C@@H](NC(=O)C2CC2)[C@H](CO)O1)Nc1ccc(C(F)(F)F)cc1	13.5 µM	activity change, negative = inhibition ([1]; at 120 µM (top of the series)): -4.12% (inactive)
C[C@@H]1CN([C@@H](C)CO)C(=O)c2cccc(NC(=O)Nc3ccc(C(F)(F)F)cc3)c2O[C@@H]1CN(C)Cc1ccccc1	2.69 µM	–
CN(C)CC(=O)N1[C@H](C#N)[C@H](c2ccc(C#CC3CCCCC3)cc2)[C@@H]1CO	65.2 µM	–
CO[C@H](CN(C)S(=O)(=O)c1cn(C)cn1)[C@@H](C)CN(C(=O)Nc1ccc(C(F)(F)F)cc1)[C@H](C)CO	12.6 µM	–
